Results reported in patent US20170135948A1, “COMPOSITION COMPRISING EXTRACT OF AUTUMN SOYBEAN LEAVES” (AMOREPACIFIC CORPORATION, priority 2014, published 2017).

Tests used:
collagenase = test: Collagenase production inhibition test in human fibroblasts; format: cell-based; settings: 10^−4 M tocopherol or EGCG, 24 hours, untreated group = 100
Experimental: The activity of inhibiting collagenase production of the soybean leaf extracts of stages VC, V2, V4, R2, R4, R6 and R7 prepared in Example 1 was compared with those of tocopherol (Comparative Example 1) and EGCG (Comparative Example 2). Tocopherol and EGCG are known to prevent skin aging by regenerating epidermal cells.
Human fibroblasts (Cascade Biologics, Portland, Oreg., USA) were added to a 96-well microtiter plate containing Dulbecco's modified Eagle's medium (DMEM) supplemented with 2.5 wt % fetal bovine serum, at 5,000 cells/well, and cultured to about 90% confluence. Then, after culturing in serum-free DMEM for 24 hours and treating with 100 μg/mL of each of the soybean leaf extracts of stages VC, V2, V4, R2, R4, R6 and R7 prepared in Example 1 or 10^−4 M tocopherol or EGCG (Sigma Aldrich) for 24 hours, the cell culture was harvested.
The production of collagenase in the cell culture harvested was measured using a collagenase measuring system (Amersham Pharmacia, USA). […]
A absorbance of a cell culture obtained without treating with the composition was used as a control group. That is to say, the expression level of collagenase in the group treated with the test substance was calculated relative to that of the untreated group as 100.
Collagenase expression level (%)=Absorbance of group treated with test substance/Absorbance of control group×100 [Equation 1]

[1] = Irritation test (pricking, flushing) on the face of 15 panels sensitive to irritation; format: in vivo
Experimental: Retinol as a known antiaging substance and the autumn soybean leaf (stage R7) extract as an active ingredient of the present disclosure were tested comparatively for irritation by 15 panels who are sensitive to irritation such as pricking, flushing, etc.
The panels were asked to apply 0.5 mL of retinol (purchased from Sigma) or the autumn soybean leaf extract obtained in Example 1 (1 mg/mL) randomly on each face and score between 0 and 3.0 points with 0.1-point intervals.
1.1-2.0: Moderate irritation.
2.1-3.0: Severe irritation.

[2] = Antioxidative activity test based on DPPH reduction; format: biochemical; settings: sample concentration at which absorbance at 540 nm decreased by 50%; 100 μM DPPH, 37° C., 30 minutes
Experimental: In order to investigate the antioxidative activity of the soybean leaf extracts of stages VC, V2, V4, R2, R4, R6 and R7 prepared in Example 1, the effect of inhibiting the oxidation of the free radical 1,1-diphenyl-2-picrylhydrazyl (DPPH) was compared by measuring the change in absorbance caused by reduction of DPPH.
190 μL of a 100 μM (in ethanol) DPPH solution and each of the soybean leaf extracts of stages VC, V2, V4, R2, R4, R6 and R7 obtained in Example 1 and 10,000 ppm Trolox (positive control), a synthetic antioxidant are prepared at a concentration of 10,000 ppm, diluted to a final concentration of 500 ppm, 250 ppm, 125 ppm, 62.5 ppm, 31.25 ppm or 15.63 ppm. 10 μL of each of them were mixed to prepare a reaction solution, and absorbance was measured at 540 nm after incubation at 37° C. for 30 minutes. IC50 means the sample concentration when the absorbance was decreased by 50% due to the added sample.

[3] = score 0 to 3.0 points, 0.5 mL applied on face, extract 1 mg/mL, 15 panels

O=C(O[C@@H]1Cc2c(O)cc(O)cc2O[C@@H]1c1cc(O)c(O)c(O)c1)c1cc(O)c(O)c(O)c1 [EGCG (Comparative Example 2), EGCG]
Collagenase expression level (%) (collagenase): 61%

CC1=C(/C=C/C(C)=C/C=C/C(C)=C/CO)C(C)(C)CCC1 [Retinol]
Irritation such as pricking and flushing (in words) ([1]; grade by the scoring standard, 0.5 mL applied on face): slight irritation
Mean (irritation score) ([1]; mean of pricking and flushing scores, 0 to 3.0 points): 0.65
Flushing (irritation score) [1, 3]: 0.42
Pricking (irritation score) [1, 3]: 0.87

Cc1c(C)c2c(c(C)c1O)CC[C@@](C)(CCC[C@H](C)CCC[C@H](C)CCCC(C)C)O2 [Tocopherol (Comparative Example 1), tocopherol]
Collagenase expression level (%) (collagenase): 74%

Cc1c(C)c2c(c(C)c1O)CCC(C)(C(=O)O)O2 (stereo not shown) [Trolox (positive control), Trolox]
IC50 (ppm) [2]: 38 ppm
